Measured values: PubChem BioAssay (NCI)
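These data come from cells grown in 96-well plates and exposed to compound for 48 hours at five concentrations. GI50 is the concentration that inhibits growth by half. TGI is the concentration that stops growth completely.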

Legend:
Experiment in all cases: growth of human tumour cells (NCI), 48 h
SN12C renal = test system: SN12C renal
UO-31 renal = test system: UO-31 renal
SK-OV-3 ovarian = test system: SK-OV-3 ovarian
BT-549 breast = test system: BT-549 breast
HS 578T breast = test system: HS 578T breast
MDA-MB-231 breast = test system: MDA-MB-231 breast
NCI-H226 lung = test system: NCI-H226 lung
HCC-2998 colon = test system: HCC-2998 colon
OVCAR-8 ovarian = test system: OVCAR-8 ovarian
MDA-MB-435 = test system: MDA-MB-435
NCI-H522 lung = test system: NCI-H522 lung
SNB-75 CNS = test system: SNB-75 CNS
U251 CNS = test system: U251 CNS
DU-145 prostate = test system: DU-145 prostate
SK-MEL-28 melanoma = test system: SK-MEL-28 melanoma
OVCAR-5 ovarian = test system: OVCAR-5 ovarian
UACC-257 melanoma = test system: UACC-257 melanoma
K-562 leukemia = test system: K-562 leukemia
CCRF-CEM leukemia = test system: CCRF-CEM leukemia
NCI-H23 lung = test system: NCI-H23 lung
IGROV1 ovarian = test system: IGROV1 ovarian
SF-268 CNS = test system: SF-268 CNS
COLO 205 colon = test system: COLO 205 colon
HCT-116 colon = test system: HCT-116 colon
HOP-92 NSCLC = test system: HOP-92 NSCLC
TK-10 renal = test system: TK-10 renal
NCI-H460 lung = test system: NCI-H460 lung
SF-295 CNS = test system: SF-295 CNS
PC-3 prostate = test system: PC-3 prostate
A549 NSCLC = test system: A549 NSCLC
MALME-3M melanoma = test system: MALME-3M melanoma
RXF 393 renal = test system: RXF 393 renal
786-0 renal = test system: 786-0 renal
OVCAR-3 ovarian = test system: OVCAR-3 ovarian
HCT-15 colon = test system: HCT-15 colon
CAKI-1 renal = test system: CAKI-1 renal
SF-539 CNS = test system: SF-539 CNS
UACC-62 melanoma = test system: UACC-62 melanoma
SNB-19 CNS = test system: SNB-19 CNS
ACHN renal = test system: ACHN renal
A498 renal = test system: A498 renal
HOP-62 NSCLC = test system: HOP-62 NSCLC
EKVX NSCLC = test system: EKVX NSCLC
RPMI-8226 leukemia = test system: RPMI-8226 leukemia
SK-MEL-5 melanoma = test system: SK-MEL-5 melanoma
LOX IMVI melanoma = test system: LOX IMVI melanoma
NCI/ADR-RES ovarian = test system: NCI/ADR-RES ovarian
MCF7 breast = test system: MCF7 breast
HT29 colon = test system: HT29 colon
SW-620 colon = test system: SW-620 colon
SK-MEL-2 melanoma = test system: SK-MEL-2 melanoma
KM12 colon = test system: KM12 colon
M14 melanoma = test system: M14 melanoma
T-47D breast = test system: T-47D breast
MOLT-4 leukemia = test system: MOLT-4 leukemia
OVCAR-4 ovarian = test system: OVCAR-4 ovarian
SR leukemia = test system: SR leukemia
HL-60(TB) leukemia = test system: HL-60(TB) leukemia

Which results are given for `C#C[C@]1(O)CC[C@H]2[C@@H]3CC=C4c5sc(Nc6ccncc6)nc5CC[C@]4(C)[C@H]3CC[C@@]21C`?
GI50 (SN12C renal): 745 nM; TGI (SN12C renal): 2110 nM; GI50 (UO-31 renal): 227 nM; TGI (UO-31 renal): 822 nM; GI50 (SK-OV-3 ovarian): 268 nM; TGI (SK-OV-3 ovarian): 780 nM; GI50 (BT-549 breast): 330 nM; TGI (BT-549 breast): 1620 nM; GI50 (HS 578T breast): 64.5 nM; TGI (HS 578T breast): 580 nM; GI50 (MDA-MB-231 breast): 942 nM; TGI (MDA-MB-231 breast): 3280 nM; GI50 (NCI-H226 lung): 1620 nM; TGI (NCI-H226 lung): 22500 nM; GI50 (HCC-2998 colon): 1480 nM; TGI (HCC-2998 colon): 2930 nM; GI50 (OVCAR-8 ovarian): 987 nM; TGI (OVCAR-8 ovarian): 2780 nM; GI50 (MDA-MB-435): 293 nM; TGI (MDA-MB-435): 1050 nM; GI50 (NCI-H522 lung): 740 nM; TGI (NCI-H522 lung): 2220 nM; GI50 (SNB-75 CNS): 191 nM; TGI (SNB-75 CNS): 1930 nM; GI50 (U251 CNS): 103 nM; TGI (U251 CNS): 1160 nM; GI50 (DU-145 prostate): 1050 nM; TGI (DU-145 prostate): 3620 nM; GI50 (SK-MEL-28 melanoma): 148 nM; TGI (SK-MEL-28 melanoma): 394 nM; GI50 (OVCAR-5 ovarian): 1060 nM; TGI (OVCAR-5 ovarian): 3130 nM; GI50 (UACC-257 melanoma): 193 nM; TGI (UACC-257 melanoma): 416 nM; GI50 (K-562 leukemia): 247 nM; TGI (K-562 leukemia): 811 nM; GI50 (CCRF-CEM leukemia): 257 nM; TGI (CCRF-CEM leukemia): 3750 nM; GI50 (NCI-H23 lung): 657 nM; TGI (NCI-H23 lung): 2520 nM; GI50 (IGROV1 ovarian): 531 nM; TGI (IGROV1 ovarian): 2050 nM; GI50 (SF-268 CNS): 445 nM; TGI (SF-268 CNS): 2850 nM; GI50 (COLO 205 colon): 227 nM; TGI (COLO 205 colon): 494 nM; GI50 (HCT-116 colon): 309 nM; TGI (HCT-116 colon): 1200 nM; GI50 (HOP-92 NSCLC): 312 nM; TGI (HOP-92 NSCLC): 1330 nM; GI50 (TK-10 renal): 1010 nM; TGI (TK-10 renal): 2460 nM; GI50 (NCI-H460 lung): 372 nM; TGI (NCI-H460 lung): 1400 nM; GI50 (SF-295 CNS): 91.2 nM; TGI (SF-295 CNS): 311 nM; GI50 (PC-3 prostate): 243 nM; TGI (PC-3 prostate): 1350 nM; GI50 (A549 NSCLC): 372 nM; TGI (A549 NSCLC): 1820 nM; GI50 (MALME-3M melanoma): 266 nM; TGI (MALME-3M melanoma): 994 nM; GI50 (RXF 393 renal): 25.1 nM; TGI (RXF 393 renal): 110 nM; GI50 (786-0 renal): 120 nM; TGI (786-0 renal): 648 nM; GI50 (OVCAR-3 ovarian): 1480 nM; TGI (OVCAR-3 ovarian): 3660 nM; GI50 (HCT-15 colon): 261 nM; TGI (HCT-15 colon): 1190 nM; GI50 (CAKI-1 renal): 345 nM; TGI (CAKI-1 renal): 1560 nM; GI50 (SF-539 CNS): 108 nM; TGI (SF-539 CNS): 318 nM; GI50 (UACC-62 melanoma): 223 nM; TGI (UACC-62 melanoma): 595 nM; GI50 (SNB-19 CNS): 305 nM; TGI (SNB-19 CNS): 4640 nM; GI50 (ACHN renal): 484 nM; TGI (ACHN renal): 1940 nM; GI50 (A498 renal): 204 nM; TGI (A498 renal): 517 nM; GI50 (HOP-62 NSCLC): 266 nM; TGI (HOP-62 NSCLC): 1150 nM; GI50 (EKVX NSCLC): 552 nM; TGI (EKVX NSCLC): 3160 nM; GI50 (RPMI-8226 leukemia): 42 nM; TGI (RPMI-8226 leukemia): 250 nM; GI50 (SK-MEL-5 melanoma): 467 nM; TGI (SK-MEL-5 melanoma): 1570 nM; GI50 (LOX IMVI melanoma): 200 nM; TGI (LOX IMVI melanoma): 476 nM; GI50 (NCI/ADR-RES ovarian): 1260 nM; TGI (NCI/ADR-RES ovarian): 4480 nM; GI50 (MCF7 breast): 232 nM; TGI (MCF7 breast): 1380 nM; GI50 (HT29 colon): 308 nM; TGI (HT29 colon): 1290 nM; GI50 (SW-620 colon): 284 nM; TGI (SW-620 colon): 901 nM; GI50 (SK-MEL-2 melanoma): 342 nM; TGI (SK-MEL-2 melanoma): 1320 nM; GI50 (KM12 colon): 387 nM; TGI (KM12 colon): 1780 nM; GI50 (M14 melanoma): 182 nM; TGI (M14 melanoma): 398 nM; GI50 (T-47D breast): 973 nM; TGI (T-47D breast): 3990 nM; GI50 (MOLT-4 leukemia): 216 nM; TGI (MOLT-4 leukemia): 997 nM; GI50 (OVCAR-4 ovarian): 1360 nM; TGI (OVCAR-4 ovarian): 3190 nM; GI50 (SR leukemia): 47.2 nM; TGI (SR leukemia): 483 nM; GI50 (HL-60(TB) leukemia): 153 nM; TGI (HL-60(TB) leukemia): 1390 nM
